In patent US20230304996A1, “MICROFLUIDIC SYSTEM TO CONTROL PERFUSION, DIFFUSION AND COLLECTION OF MOLECULES OVER LONG PERIODS IN AN EX-VIVO SKIN MODEL” (GENOSKIN, priority 2020, published 2023):

Test: Diffusion of infused low molecular weight contrast agents in NativeSkin and FlowSkin models (surface colour intensity)
Type: in vitro ADME
Conditions: infused at 0.5 mg/mL, first hours of infusion; FLOWSKIN (with hypodermis) compared with NATIVESKIN (without)
Description: In order to characterize diffusion during the first hours of infusion in the NativeSkin° and in the FlowSkin®model, two low molecular weight contrast agents (KI: potassium Iodide, […]) and V patent blur (E131, 1 kDa) at 0.5 mg/mL have been infused in both models.
The result was similar with V patent blue (E131). Accordingly, it seems that the hypoderm facilitate the diffusion of low molecular weight agent within the FLOWSKIN® model.

For `[I-].[K+]` [KI, potassium Iodide], the “color intensity visible at the surface of the FLOWSKIN model versus the NATIVESKIN model” value was “growing faster”.
